Values belong to the molecule of their own block, whether it stands above or below them. The source made the active and inactive calls.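 How the source made its calls: active means lipid-stain IC50 at or below a set limit, with nuclear-stain toxicity IC50 at least five times higher; inactive means the rest.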
Tests used:
TAG = test: triacylglycerol accumulation inhibitor potency, dose response, cell-based, panel, Nile Red and DAPI fluorescence, H9c2 (AID 651630); settings: H9c2 cells, Nile Red TAG fluorescence, oleic acid;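 further: cells exposed to compound overnight before fixation and staining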
DAPI = test: as above; settings: H9c2 cells, DAPI nuclear fluorescence (cytotoxicity counter-readout), oleic acid

SMILES: COC(=O)c1c(NC(NC(=O)C(C)(C)C)C(Cl)(Cl)Cl)sc2c1CCC2 (stereo not given)
- IC50 (TAG; mean of runs): 13.3 µM
- IC50 (TAG; run 1): 13.1 µM
- IC50 (TAG; run 2): 13.5 µM
- IC50 cytotoxicity (DAPI nuclear signal decrease) (DAPI; mean of runs): > 25 µM (inactive)
- IC50 cytotoxicity (DAPI nuclear signal decrease) (DAPI; run 1): > 25 µM
- IC50 cytotoxicity (DAPI nuclear signal decrease) (DAPI; run 2): > 25 µM

SMILES: Cc1nn(-c2ccccc2)c2c1CC(=O)Nc1ccccc1-2
- IC50 (TAG; mean of runs): 8.97 µM
- IC50 (TAG; run 1): 7.74 µM
- IC50 (TAG; run 2): 10.2 µM
- IC50 cytotoxicity (DAPI nuclear signal decrease) (DAPI; mean of runs): > 25 µM (inactive)
- IC50 cytotoxicity (DAPI nuclear signal decrease) (DAPI; run 1): > 25 µM
- IC50 cytotoxicity (DAPI nuclear signal decrease) (DAPI; run 2): > 25 µM

SMILES: CC(C)(C)NC(=O)C(c1ccc(-c2ccccc2)cc1)N(C[C@H]1CC[C@@H]([C@@H]2CC[C@H](CO)O2)O1)C(=O)c1ccc(-c2ccccc2)cc1 (stereo not given in full)
- IC50 (TAG; mean of runs): 13.8 µM
- IC50 (TAG; run 1): 12.3 µM
- IC50 (TAG; run 2): 15.3 µM
- IC50 cytotoxicity (DAPI nuclear signal decrease) (DAPI; mean of runs): > 25 µM (inactive)
- IC50 cytotoxicity (DAPI nuclear signal decrease) (DAPI; run 1): > 25 µM
- IC50 cytotoxicity (DAPI nuclear signal decrease) (DAPI; run 2): > 25 µM

SMILES: Cc1ccc(C2C(C=Nc3c(C)n(C)n(-c4ccccc4)c3=O)=C(c3ccccc3)Oc3ccccc32)cc1 (stereo not given)
- IC50 (TAG; mean of runs): 7.41 µM
- IC50 (TAG; run 1): 6.56 µM
- IC50 (TAG; run 2): 8.27 µM
- IC50 cytotoxicity (DAPI nuclear signal decrease) (DAPI; mean of runs): > 25 µM (inactive)
- IC50 cytotoxicity (DAPI nuclear signal decrease) (DAPI; run 1): > 25 µM
- IC50 cytotoxicity (DAPI nuclear signal decrease) (DAPI; run 2): > 25 µM

SMILES: Cc1ccccc1NC(=O)CSc1nc2ccc(Nc3nc(N4CCOCC4)nc(N4CCOCC4)n3)cc2s1
- IC50 (TAG; mean of runs): 10.7 µM
- IC50 (TAG; run 1): 10.6 µM
- IC50 (TAG; run 2): 10.8 µM
- IC50 cytotoxicity (DAPI nuclear signal decrease) (DAPI; mean of runs): > 25 µM (inactive)
- IC50 cytotoxicity (DAPI nuclear signal decrease) (DAPI; run 1): > 25 µM
- IC50 cytotoxicity (DAPI nuclear signal decrease) (DAPI; run 2): > 25 µM

SMILES: CC1(c2ccccc2)O[C@@H]2C[C@H]3[C@@H]4CCC5=CC(=O)C=C[C@]5(C)[C@@]4(F)[C@@H](O)C[C@]3(C)[C@]2(C(=O)CO)O1 (stereo not given in full)
- IC50 (TAG; mean of runs): 13.9 µM
- IC50 (TAG; run 1): 13 µM
- IC50 (TAG; run 2): 14.7 µM
- IC50 cytotoxicity (DAPI nuclear signal decrease) (DAPI; mean of runs): > 25 µM (inactive)
- IC50 cytotoxicity (DAPI nuclear signal decrease) (DAPI; run 1): > 25 µM
- IC50 cytotoxicity (DAPI nuclear signal decrease) (DAPI; run 2): > 25 µM

SMILES: CCCCOc1ccccc1NC(=O)Cn1c(-c2nonc2N)nc2ccccc21
- IC50 (TAG; mean of runs): > 25 µM (inactive)
- IC50 (TAG; run 1): > 25 µM
- IC50 (TAG; run 2): > 25 µM
- IC50 cytotoxicity (DAPI nuclear signal decrease) (DAPI; mean of runs): > 25 µM (inactive)
- IC50 cytotoxicity (DAPI nuclear signal decrease) (DAPI; run 1): > 25 µM
- IC50 cytotoxicity (DAPI nuclear signal decrease) (DAPI; run 2): > 25 µM

Further lines, with some results ahead:

- IC50 (TAG; run 1): 10.3 µM
- IC50 (TAG; run 2): > 25 µM
SMILES: COc1ccc(CCNc2nnc(Sc3nnnn3-c3ccccc3)s2)cc1OC
- IC50 cytotoxicity (DAPI nuclear signal decrease) (DAPI; mean of runs): > 25 µM (inactive)
- IC50 cytotoxicity (DAPI nuclear signal decrease) (DAPI; run 1): > 25 µM
- IC50 cytotoxicity (DAPI nuclear signal decrease) (DAPI; run 2): > 25 µM

- IC50 (TAG; mean of runs): 19 µM (inactive)
- IC50 (TAG; run 1): 19.9 µM
- IC50 (TAG; run 2): 18.1 µM
SMILES: COc1ccc(C(C(=O)NC(C)(C)C)N(Cc2ccco2)C(=O)CCC(=O)Nc2cc(C)on2)cc1 (stereo not given)
- IC50 cytotoxicity (DAPI nuclear signal decrease) (DAPI; mean of runs): > 25 µM (inactive)
- IC50 cytotoxicity (DAPI nuclear signal decrease) (DAPI; run 1): > 25 µM
- IC50 cytotoxicity (DAPI nuclear signal decrease) (DAPI; run 2): > 25 µM

- IC50 (TAG; mean of runs): 7.1 µM
- IC50 (TAG; run 1): 7.74 µM
- IC50 (TAG; run 2): 6.45 µM
SMILES: O=C(CSc1nc2ccc(Nc3nc(N4CCOCC4)nc(N4CCOCC4)n3)cc2s1)NCc1ccco1
- IC50 cytotoxicity (DAPI nuclear signal decrease) (DAPI; mean of runs): > 25 µM (inactive)
- IC50 cytotoxicity (DAPI nuclear signal decrease) (DAPI; run 1): > 25 µM
- IC50 cytotoxicity (DAPI nuclear signal decrease) (DAPI; run 2): > 25 µM

- IC50 (TAG; mean of runs): 8.92 µM
- IC50 (TAG; run 1): 7.83 µM
- IC50 (TAG; run 2): 10 µM
SMILES: C=CC[C@@H](CC(=O)N(CCO)Cc1ccccc1)C(=O)N[C@H](COC(=O)[C@@H](CC=C)Cc1ccc(F)cc1)Cc1c[nH]c2ccccc12
- IC50 cytotoxicity (DAPI nuclear signal decrease) (DAPI; mean of runs): > 25 µM (inactive)
- IC50 cytotoxicity (DAPI nuclear signal decrease) (DAPI; run 1): > 25 µM
- IC50 cytotoxicity (DAPI nuclear signal decrease) (DAPI; run 2): > 25 µM

- IC50 (TAG; mean of runs): > 25 µM (inactive)
- IC50 (TAG; run 1): > 25 µM
- IC50 (TAG; run 2): > 25 µM
SMILES: COC(=O)c1cc(NC(=O)c2c(Cl)nc3sccn23)cc(C(=O)OC)c1
- IC50 cytotoxicity (DAPI nuclear signal decrease) (DAPI; mean of runs): > 25 µM (inactive)
- IC50 cytotoxicity (DAPI nuclear signal decrease) (DAPI; run 1): > 25 µM
- IC50 cytotoxicity (DAPI nuclear signal decrease) (DAPI; run 2): > 25 µM

- IC50 (TAG; mean of runs): > 25 µM (inactive)
- IC50 (TAG; run 1): > 25 µM
- IC50 (TAG; run 2): > 25 µM
SMILES: CCn1ncc(/C=N/N=C2\CCC3C4CCc5cc(O)ccc5C4CCC23C)c1C (stereo not given)
- IC50 cytotoxicity (DAPI nuclear signal decrease) (DAPI; mean of runs): > 25 µM (inactive)
- IC50 cytotoxicity (DAPI nuclear signal decrease) (DAPI; run 1): > 25 µM
- IC50 cytotoxicity (DAPI nuclear signal decrease) (DAPI; run 2): > 25 µM

- IC50 (TAG; mean of runs): > 25 µM (inactive)
- IC50 (TAG; run 1): > 25 µM
- IC50 (TAG; run 2): > 25 µM
SMILES: O=C(Cc1n[nH]c(=O)c2ccccc12)OCC(=O)c1ccc2c(c1)OCCO2
- IC50 cytotoxicity (DAPI nuclear signal decrease) (DAPI; mean of runs): > 25 µM (inactive)
- IC50 cytotoxicity (DAPI nuclear signal decrease) (DAPI; run 1): > 25 µM
- IC50 cytotoxicity (DAPI nuclear signal decrease) (DAPI; run 2): > 25 µM

- IC50 (TAG; mean of runs): 11.8 µM
- IC50 (TAG; run 1): 12 µM
- IC50 (TAG; run 2): 11.6 µM
SMILES: CC(C)(C)OC(=O)[C@H](Cc1ccccc1)NC(=O)c1ncn2c1c(=O)[nH]c1ccc(Br)cc12
- IC50 cytotoxicity (DAPI nuclear signal decrease) (DAPI; mean of runs): > 25 µM (inactive)
- IC50 cytotoxicity (DAPI nuclear signal decrease) (DAPI; run 1): > 25 µM
- IC50 cytotoxicity (DAPI nuclear signal decrease) (DAPI; run 2): > 25 µM

- IC50 (TAG; mean of runs): 8 µM
- IC50 (TAG; run 1): 5.89 µM
- IC50 (TAG; run 2): 10.1 µM
SMILES: COc1ccc(-c2csc(NC(=S)NC(=O)/C=C/c3ccco3)n2)cc1Br
- IC50 cytotoxicity (DAPI nuclear signal decrease) (DAPI; mean of runs): > 25 µM (inactive)
- IC50 cytotoxicity (DAPI nuclear signal decrease) (DAPI; run 1): > 25 µM
- IC50 cytotoxicity (DAPI nuclear signal decrease) (DAPI; run 2): > 25 µM

Source: PubChem BioAssay AID651630 (Sanford-Burnham Center for Chemical Genomics, 2012)
